Among the data in BindingDB's records for doi:10.1021/jm00046a008 (University of Alabama At Birmingham, 1994) are Ki values, retold here.

In this assay the target is Carnitine O-acetyltransferase (Columba livia). The experiment in a line: Tested against pigeon breast carnitine acyltransferase.

Compound `CC(=O)NC(CC(=O)[O-])C[N+](C)(C)C` (configuration not stated) [(2-Acetylamino-3-carboxy-propyl)-trimethyl-ammonium] yielded a Ki of 0.024 mM. On to `CC(=O)NC(CC(=O)O)CC(C)(C)C` (configuration not stated) [3-Acetylamino-5,5-dimethyl-hexanoic acid anion], for which the affinity corresponds to a Ki of 25 mM.

As usually defined, the Ki is a dissociation constant, usually derived from enzyme kinetics or from competition with a known ligand.
